The subject of assay [1] is B16. Put plainly: Tested for cytotoxicity in murine melanoma (B16). Conditions: Mus musculus; call rule not given here. It counts as functional, cell-based.
Assay [2] concerns Colon 26. Nature of the assay: Tested for cytotoxicity in murine colon cancer (C26). Type of assay: functional, cell-based. Conditions: Mus musculus.
The test system of assay [3] is CCRF-CEM. Put plainly: Tested for cytotoxicity in human T-cell lymphoblastic leukemia cell line (CEM). Type of assay: functional, cell-based.
In assay [4] the test system is HepG2. Nature of the assay: Tested for cytotoxicity in human hepatoma cell (2.2.15). Type of assay: functional, cell-based.
Assay [5] deals with M109. Nature of the assay: Tested for cytotoxicity in murine lung carcinoma (M109). Type of assay: functional, cell-based. Conditions: Mus musculus.
Assay [6] has as its system B16. Nature of the assay: Tested for cytotoxicity in murine melanoma (B16); not cytotoxic at the highest concentration tested (70 uM). Type of assay: functional, cell-based, Mus musculus.
Assay [7] relates to Colon 26. Nature of the assay: Tested for cytotoxicity in murine colon cancer (C26); not cytotoxic at the highest concentration tested (70 uM). It counts as functional, cell-based, Mus musculus.
In assay [8] the test system is HepG2. Put plainly: Tested for cytotoxicity in human hepatoma cell (2.2.15); not cytotoxic at the highest concentration tested (70 uM). Type of assay: functional, cell-based.
Assay [9] has as its system HepG2. Put plainly: Tested for effective concentration against HBV treated with drug every 3 days for 9 days using human hepatoblastoma cell line HepG2 2.2.15. It counts as functional, cell-based.
Assay [10] relates to HepG2. Put plainly: Tested for the ability to inhibit HBV replication at a concentration of 19 nM using human hepatoblastoma cell line HepG2 2.2.15. Type of assay: functional.
Assay [11] deals with HepG2. Put plainly: Tested for the ability to inhibit extracellular HBV DNA synthesis at a concentration of 10 nM. Type of assay: functional. The conditions noted are these: Homo sapiens.
The subject of assay [12] is M109. Put plainly: Tested for cytotoxicity in murine lung carcinoma (M109); not cytotoxic at the highest concentration tested (70 uM). It counts as functional, cell-based, Mus musculus.
The test system of assay [13] is HepG2. Nature of the assay: Tested for the ability to inhibit HBV DNA synthesis at a concentration of 4 nM using human hepatoblastoma cell line HepG2 2.2.15. Type of assay: functional.
Assay [14] deals with HepG2. Put plainly: Tested for the ability to inhibit HBV DNA synthesis at a concentration of 7 nM using human hepatoblastoma cell line HepG2 2.2.15. It counts as functional.
For assay [15], the system named is HepG2. Nature of the assay: Tested for the ability to inhibit HBV replication at a concentration of 40 nM using human hepatoblastoma cell line HepG2 2.2.15. Type of assay: functional.

SMILES strings stand for the structures. A value given as a limit tells only on which side of the number the result lay.

With `CC(=O)SCCOP(=O)(OCCS)OC[C@H]1C=C[C@@H](n2cc(F)c(N)nc2=O)O1` (some centres not stated), the IC50 in [1] is over 70 µM; in assay [2] it was over 70 µM; in assay [3], 52 µM; in assay [4], over 70 µM; in [5] it was over 70 µM.
Turning to `CC(=O)SCCOP(=O)(OCCSC(C)=O)OC[C@H]1CC[C@@H](n2cnc3c(N)ncnc32)O1`, the IC50 in assay [1] is over 70 µM; in assay [2] it was over 70 µM; in assay [3], 13 µM; in assay [4], over 70 µM; in [5], over 70 µM.
In the case of `CC(=O)SCCOP(=O)(OCCSC(C)=O)OC[C@H]1C=C[C@@H](n2cc(F)c(N)nc2=O)O1`, the concentration for half-maximal inhibition (IC50) result is “Not Active” in [6]; “Not Active” in [7]; 52 µM in assay [3]; “Not Active” in [8]; “Not Active” in assay [12]. Besides, in [9], the 50% effective concentration (EC50) amounted to 0.002 µM. In addition, at 0.019 µM the inhibition in [10] was 90%. In assay [11], this compound displayed an inhibition at 0.01 µM of 85%. In [13], this compound gave an inhibition at 0.004 µM of 50%.
Take `Nc1nc(=O)n([C@@H]2C=C[C@H](CO)O2)cc1F` [ELVUCITABINE]: the IC50 entry is “Not Active” in assay [6]; “Not Active” in [7]; 13 µM in assay [3]; “Not Active” in assay [8]; “Not Active” in [12]. Moreover, the midpoint of the response in assay [9], the EC50, lay at 0.017 µM. The inhibition at 0.007 µM in assay [14] is 50%. Moreover, 0.04 µM produced 70% inhibition in assay [15].

As usually defined, the IC50 is the concentration that gives 50% inhibition. A lower IC50 goes with greater potency in that assay. Broadly, the EC50 is the concentration needed to bring the measured effect to its halfway point. Read a high EC50 as a less potent agent. What is called inhibition is the share of the control response that was lost under treatment. Lower therefore signals little suppression.

(Values after ChEMBL document CHEMBL1131360, “Bis-S-acyl-2-thioethyl (SATE)-bearing monophosphate prodrug of beta-L-FD4C as potent anti-HBV agent” (Bioorg Med Chem Lett, 1998).)
